Experimental data reported in the supplement of paper PMC10307832.

Experiments:
Experiment in all cases: relative viability (nuclei count vs DMSO), 5 days (fraction); higher = more cells survive
Selumetinib + Pictilisib = compound: Cn1cnc2c(F)c(Nc3ccc(Br)cc3Cl)c(C(=O)NOCCO)cc21 [Selumetinib] + CS(=O)(=O)N1CCN(Cc2cc3nc(-c4cccc5[nH]ncc45)nc(N4CCOCC4)c3s2)CC1 [Pictilisib] (partner 1 µM)
Method in brief: (§1)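 Relative viability is defined as nuclei in treated wells over nuclei in vehicle wells. Duplicate plates were run and medians reported. Lung cancer cell lines in 1536-well plates were dosed by pin tool one day after seeding, with one drug or with a fixed anchor-drug dose plus five library-drug doses (not always all listed) in √10 steps, and nuclei were counted after 5 days.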

Selumetinib + Olaparib = compound: Cn1cnc2c(F)c(Nc3ccc(Br)cc3Cl)c(C(=O)NOCCO)cc21 [Selumetinib] + O=C(c1cc(Cc2n[nH]c(=O)c3ccccc23)ccc1F)N1CCN(C(=O)C2CC2)CC1 [Olaparib] (partner 8 µM)
Method in brief: as §1

Venetoclax + Trametinib = compound: CC1(C)CCC(CN2CCN(c3ccc(C(=O)NS(=O)(=O)c4ccc(NCC5CCOCC5)c([N+](=O)[O-])c4)c(Oc4cnc5[nH]ccc5c4)c3)CC2)=C(c2ccc(Cl)cc2)C1 [Venetoclax] + CC(=O)Nc1cccc(-n2c(=O)n(C3CC3)c(=O)c3c(Nc4ccc(I)cc4F)n(C)c(=O)c(C)c32)c1 [Trametinib] (partner 0.02 µM)
Method in brief: as §1

Venetoclax + Luminespib = compound: CC1(C)CCC(CN2CCN(c3ccc(C(=O)NS(=O)(=O)c4ccc(NCC5CCOCC5)c([N+](=O)[O-])c4)c(Oc4cnc5[nH]ccc5c4)c3)CC2)=C(c2ccc(Cl)cc2)C1 [Venetoclax] + CCNC(=O)c1noc(-c2cc(C(C)C)c(O)cc2O)c1-c1ccc(CN2CCOCC2)cc1 [Luminespib] (partner 0.01 µM)
Method in brief: as §1

HCC-827 was tested, and the relative viability (Selumetinib + Pictilisib; first compound 0.02 µM) was 0.82, the relative viability (Selumetinib + Pictilisib; first compound 0.06325 µM) was 1.23 and the relative viability (Selumetinib + Pictilisib; first compound 0.2 µM) was 0.79. For the same cell line, the relative viability (Selumetinib + Pictilisib; first compound 0.6325 µM) was 0.904, the relative viability (Selumetinib + Olaparib; first compound 0.02 µM) was 0.705 and the relative viability (Selumetinib + Olaparib; first compound 0.06325 µM) was 0.672. For the same cell line, the relative viability (Selumetinib + Olaparib; first compound 0.2 µM) was 0.681, the relative viability (Selumetinib + Olaparib; first compound 0.6325 µM) was 0.719 and the relative viability (Venetoclax + Trametinib; first compound 0.01 µM) was 0.522. The relative viability (Venetoclax + Trametinib; first compound 0.03162 µM) was 0.593, the relative viability (Venetoclax + Trametinib; first compound 0.1 µM) was 0.538 and the relative viability (Venetoclax + Trametinib; first compound 0.3162 µM) was 0.521. It also gave a relative viability (Venetoclax + Trametinib; first compound 1 µM) of 0.535, a relative viability (Venetoclax + Luminespib; first compound 0.01 µM) of 0.657 and a relative viability (Venetoclax + Luminespib; first compound 0.03162 µM) of 0.641. The relative viability (Venetoclax + Luminespib; first compound 0.1 µM) was 0.237, the relative viability (Venetoclax + Luminespib; first compound 0.3162 µM) was 0.509 and the relative viability (Venetoclax + Luminespib; first compound 1 µM) was 0.694.

For HOP-62, the relative viability (Selumetinib + Pictilisib; first compound 0.02 µM) was 0.713, the relative viability (Selumetinib + Pictilisib; first compound 0.06325 µM) was 0.407 and the relative viability (Selumetinib + Pictilisib; first compound 0.2 µM) was 0.26. For the same cell line, the relative viability (Selumetinib + Pictilisib; first compound 0.6325 µM) was 0.261, the relative viability (Selumetinib + Olaparib; first compound 0.02 µM) was 0.474 and the relative viability (Selumetinib + Olaparib; first compound 0.06325 µM) was 0.397. For the same cell line, the relative viability (Selumetinib + Olaparib; first compound 0.2 µM) was 0.421, the relative viability (Selumetinib + Olaparib; first compound 0.6325 µM) was 0.353 and the relative viability (Venetoclax + Trametinib; first compound 0.01 µM) was 0.44. For the same cell line, the relative viability (Venetoclax + Trametinib; first compound 0.03162 µM) was 0.341, the relative viability (Venetoclax + Trametinib; first compound 0.1 µM) was 0.366 and the relative viability (Venetoclax + Trametinib; first compound 0.3162 µM) was 0.442. For the same cell line, the relative viability (Venetoclax + Trametinib; first compound 1 µM) was 0.39, the relative viability (Venetoclax + Luminespib; first compound 0.01 µM) was 0.945 and the relative viability (Venetoclax + Luminespib; first compound 0.03162 µM) was 0.892. For the same cell line, the relative viability (Venetoclax + Luminespib; first compound 0.1 µM) was 0.926, the relative viability (Venetoclax + Luminespib; first compound 0.3162 µM) was 0.8 and the relative viability (Venetoclax + Luminespib; first compound 1 µM) was 0.842.

Cell Line IA-LM has a relative viability (Selumetinib + Pictilisib; first compound 0.02 µM) of 0.144, a relative viability (Selumetinib + Pictilisib; first compound 0.06325 µM) of 0.143 and a relative viability (Selumetinib + Pictilisib; first compound 0.2 µM) of 0.119. It also gave a relative viability (Selumetinib + Pictilisib; first compound 0.6325 µM) of 0.0815, a relative viability (Selumetinib + Olaparib; first compound 0.02 µM) of 1.09 and a relative viability (Selumetinib + Olaparib; first compound 0.06325 µM) of 0.531. The relative viability (Selumetinib + Olaparib; first compound 0.2 µM) was 0.587 and the relative viability (Selumetinib + Olaparib; first compound 0.6325 µM) was 0.482.

Work on LC-2-ad yielded a relative viability (Selumetinib + Pictilisib; first compound 0.02 µM) of 0.482, a relative viability (Selumetinib + Pictilisib; first compound 0.06325 µM) of 0.426 and a relative viability (Selumetinib + Pictilisib; first compound 0.2 µM) of 0.432. For the same cell line, the relative viability (Selumetinib + Pictilisib; first compound 0.6325 µM) was 0.437, the relative viability (Selumetinib + Olaparib; first compound 0.02 µM) was 0.8 and the relative viability (Selumetinib + Olaparib; first compound 0.06325 µM) was 0.503. For the same cell line, the relative viability (Selumetinib + Olaparib; first compound 0.2 µM) was 0.757, the relative viability (Selumetinib + Olaparib; first compound 0.6325 µM) was 0.672 and the relative viability (Venetoclax + Trametinib; first compound 0.01 µM) was 0.927. The relative viability (Venetoclax + Trametinib; first compound 0.03162 µM) was 0.84, the relative viability (Venetoclax + Trametinib; first compound 0.1 µM) was 0.898 and the relative viability (Venetoclax + Trametinib; first compound 0.3162 µM) was 0.874. The relative viability (Venetoclax + Trametinib; first compound 1 µM) was 0.845, the relative viability (Venetoclax + Luminespib; first compound 0.01 µM) was 1.05 and the relative viability (Venetoclax + Luminespib; first compound 0.03162 µM) was 0.962. It also gave a relative viability (Venetoclax + Luminespib; first compound 0.1 µM) of 0.981, a relative viability (Venetoclax + Luminespib; first compound 0.3162 µM) of 1.01 and a relative viability (Venetoclax + Luminespib; first compound 1 µM) of 0.898.

In the case of LCLC-97TM1, the relative viability (Selumetinib + Pictilisib; first compound 0.02 µM) is reported as 0.212, the relative viability (Selumetinib + Pictilisib; first compound 0.06325 µM) is reported as 0.161 and the relative viability (Selumetinib + Pictilisib; first compound 0.2 µM) is reported as 0.158. The relative viability (Selumetinib + Pictilisib; first compound 0.6325 µM) was 0.125, the relative viability (Selumetinib + Olaparib; first compound 0.02 µM) was 0.292 and the relative viability (Selumetinib + Olaparib; first compound 0.06325 µM) was 0.407. The relative viability (Selumetinib + Olaparib; first compound 0.2 µM) was 0.3, the relative viability (Selumetinib + Olaparib; first compound 0.6325 µM) was 0.19 and the relative viability (Venetoclax + Trametinib; first compound 0.01 µM) was 0.217. It also gave a relative viability (Venetoclax + Trametinib; first compound 0.03162 µM) of 0.18, a relative viability (Venetoclax + Trametinib; first compound 0.1 µM) of 0.148 and a relative viability (Venetoclax + Trametinib; first compound 0.3162 µM) of 0.167. It also gave a relative viability (Venetoclax + Trametinib; first compound 1 µM) of 0.185, a relative viability (Venetoclax + Luminespib; first compound 0.01 µM) of 0.709 and a relative viability (Venetoclax + Luminespib; first compound 0.03162 µM) of 0.397. It also gave a relative viability (Venetoclax + Luminespib; first compound 0.1 µM) of 0.717, a relative viability (Venetoclax + Luminespib; first compound 0.3162 µM) of 0.727 and a relative viability (Venetoclax + Luminespib; first compound 1 µM) of 0.771.

Work on LCLC-103H yielded a relative viability (Selumetinib + Pictilisib; first compound 0.02 µM) of 0.551, a relative viability (Selumetinib + Pictilisib; first compound 0.06325 µM) of 0.655 and a relative viability (Selumetinib + Pictilisib; first compound 0.2 µM) of 0.545. It also gave a relative viability (Selumetinib + Pictilisib; first compound 0.6325 µM) of 0.53, a relative viability (Selumetinib + Olaparib; first compound 0.02 µM) of 0.656 and a relative viability (Selumetinib + Olaparib; first compound 0.06325 µM) of 0.703. The relative viability (Selumetinib + Olaparib; first compound 0.2 µM) was 0.66, the relative viability (Selumetinib + Olaparib; first compound 0.6325 µM) was 0.663 and the relative viability (Venetoclax + Trametinib; first compound 0.01 µM) was 0.714. It also gave a relative viability (Venetoclax + Trametinib; first compound 0.03162 µM) of 0.663, a relative viability (Venetoclax + Trametinib; first compound 0.1 µM) of 0.635 and a relative viability (Venetoclax + Trametinib; first compound 0.3162 µM) of 0.679. It also gave a relative viability (Venetoclax + Trametinib; first compound 1 µM) of 0.654, a relative viability (Venetoclax + Luminespib; first compound 0.01 µM) of 0.969 and a relative viability (Venetoclax + Luminespib; first compound 0.03162 µM) of 0.999. The relative viability (Venetoclax + Luminespib; first compound 0.1 µM) was 0.905, the relative viability (Venetoclax + Luminespib; first compound 0.3162 µM) was 1.02 and the relative viability (Venetoclax + Luminespib; first compound 1 µM) was 0.902.

Work on LK-2 yielded a relative viability (Selumetinib + Pictilisib; first compound 0.02 µM) of 0.761, a relative viability (Selumetinib + Pictilisib; first compound 0.06325 µM) of 0.547 and a relative viability (Selumetinib + Pictilisib; first compound 0.2 µM) of 0.565. For the same cell line, the relative viability (Selumetinib + Pictilisib; first compound 0.6325 µM) was 0.544, the relative viability (Selumetinib + Olaparib; first compound 0.02 µM) was 0.811 and the relative viability (Selumetinib + Olaparib; first compound 0.06325 µM) was 0.842. For the same cell line, the relative viability (Selumetinib + Olaparib; first compound 0.2 µM) was 0.818, the relative viability (Selumetinib + Olaparib; first compound 0.6325 µM) was 0.759 and the relative viability (Venetoclax + Trametinib; first compound 0.01 µM) was 0.894. It also gave a relative viability (Venetoclax + Trametinib; first compound 0.03162 µM) of 0.762, a relative viability (Venetoclax + Trametinib; first compound 0.1 µM) of 0.596 and a relative viability (Venetoclax + Trametinib; first compound 0.3162 µM) of 0.628. The relative viability (Venetoclax + Trametinib; first compound 1 µM) was 0.639, the relative viability (Venetoclax + Luminespib; first compound 0.01 µM) was 0.186 and the relative viability (Venetoclax + Luminespib; first compound 0.03162 µM) was 0.204. For the same cell line, the relative viability (Venetoclax + Luminespib; first compound 0.1 µM) was 0.185, the relative viability (Venetoclax + Luminespib; first compound 0.3162 µM) was 0.157 and the relative viability (Venetoclax + Luminespib; first compound 1 µM) was 0.182.

Work on LOU-NH91 yielded a relative viability (Selumetinib + Pictilisib; first compound 0.02 µM) of 0.503, a relative viability (Selumetinib + Pictilisib; first compound 0.06325 µM) of 0.496 and a relative viability (Selumetinib + Pictilisib; first compound 0.2 µM) of 0.523. The relative viability (Selumetinib + Pictilisib; first compound 0.6325 µM) was 0.539, the relative viability (Selumetinib + Olaparib; first compound 0.02 µM) was 0.914 and the relative viability (Selumetinib + Olaparib; first compound 0.06325 µM) was 0.845. The relative viability (Selumetinib + Olaparib; first compound 0.2 µM) was 0.864, the relative viability (Selumetinib + Olaparib; first compound 0.6325 µM) was 0.806 and the relative viability (Venetoclax + Trametinib; first compound 0.01 µM) was 0.784. It also gave a relative viability (Venetoclax + Trametinib; first compound 0.03162 µM) of 0.81, a relative viability (Venetoclax + Trametinib; first compound 0.1 µM) of 0.768 and a relative viability (Venetoclax + Trametinib; first compound 0.3162 µM) of 0.807. For the same cell line, the relative viability (Venetoclax + Trametinib; first compound 1 µM) was 0.707, the relative viability (Venetoclax + Luminespib; first compound 0.01 µM) was 0.271 and the relative viability (Venetoclax + Luminespib; first compound 0.03162 µM) was 0.374. The relative viability (Venetoclax + Luminespib; first compound 0.1 µM) was 0.345, the relative viability (Venetoclax + Luminespib; first compound 0.3162 µM) was 0.336 and the relative viability (Venetoclax + Luminespib; first compound 1 µM) was 0.326.

Work on LU99A yielded a relative viability (Selumetinib + Pictilisib; first compound 0.02 µM) of 0.34, a relative viability (Selumetinib + Pictilisib; first compound 0.06325 µM) of 0.317 and a relative viability (Selumetinib + Pictilisib; first compound 0.2 µM) of 0.412. For the same cell line, the relative viability (Selumetinib + Pictilisib; first compound 0.6325 µM) was 0.351, the relative viability (Selumetinib + Olaparib; first compound 0.02 µM) was 0.253 and the relative viability (Selumetinib + Olaparib; first compound 0.06325 µM) was 0.265. For the same cell line, the relative viability (Selumetinib + Olaparib; first compound 0.2 µM) was 0.287, the relative viability (Selumetinib + Olaparib; first compound 0.6325 µM) was 0.267 and the relative viability (Venetoclax + Trametinib; first compound 0.01 µM) was 0.485. For the same cell line, the relative viability (Venetoclax + Trametinib; first compound 0.03162 µM) was 0.611, the relative viability (Venetoclax + Trametinib; first compound 0.1 µM) was 0.482 and the relative viability (Venetoclax + Trametinib; first compound 0.3162 µM) was 0.566. The relative viability (Venetoclax + Trametinib; first compound 1 µM) was 0.596, the relative viability (Venetoclax + Luminespib; first compound 0.01 µM) was 0.232 and the relative viability (Venetoclax + Luminespib; first compound 0.03162 µM) was 0.256. The relative viability (Venetoclax + Luminespib; first compound 0.1 µM) was 0.262, the relative viability (Venetoclax + Luminespib; first compound 0.3162 µM) was 0.227 and the relative viability (Venetoclax + Luminespib; first compound 1 µM) was 0.37.
